From patent publication EP4591884A1, “LIPID COMPOUND FOR NUCLEIC ACID DELIVERY, AND RELATED USE AND MEDICAMENT COMPRISING SAME” (Beijing Baishihekang Pharmaceutical Technology (Bsjpharma) …, priority 2022, dated 2024) come the findings set out here.

The structures appear in SMILES notation.

What all share (assay): in vitro small nucleic acid delivery by lipid-nucleic acid mixture, cell uptake by flow cytometry
What all share (assay type): cell-based, human
Holding throughout (settings): lipid 1.25 ug/mL, fluorescently labeled PGY-ssRNA-26, final 100 nM, 9 h incubation, flow cytometry fluorescence

One test deals with 293T cells. How it is done:
(§1) Culture the human pancreatic acinar epithelial cancer cell line HPAC, human large cell lung cancer cell line H460, and human embryonic kidney cell line HEK293T (purchased from the Cell Resource Center, Institute of Basic Medicine, Chinese Academy of Medical Sciences) used in the experiments in a 37°C, 5%CO2 incubator. Culture the HPAC cells in DMEM/F12 medium, the H460 cells in RPMI-1640 medium, and the 293T cells in DMEM medium containing 10% fetal bovine serum and 1% antibiotics (penicillin 100 U/mL & streptomycin […]). Culture the cells to the logarithmic growth phase with a cell density of 6 × 10^5/1 mL medium/well; divide the cells into 12-well plates (1 mL medium/well), and incubate at 37°C overnight (12 h), and then conduct subsequent experiments.
(§2) Add 5 µL of nucleic acid and 95 µL of DEPC-treated water to a 2 mL glass tube, mix homogeneously, add a certain amount of lipid monomer, mix thoroughly, heat in a 90°C water bath for 15 min, and then cool naturally to obtain a mixture of nucleic acid and lipid.
(§3) 3. Detection of cell uptake of nucleic acids delivered by lipids inside cells by means of flow cytometry (CFlow) • 1) Main experimental instruments and equipment: 10 cm cell culture dishes, 12-well cell culture plates, pipettes, transfer tubes, optical microscope, flow cytometer CytoFLEX instrument (purchased from Beckman, USA) • 2) Main experimental reagents: Model establishment and transfection: artificially synthesized lipid monomers and nucleic acids as shown in the table • 3) Culture the human pancreatic acinar epithelial cancer cell line HPAC cells, human large cell lung cancer cell line H460 cells, and human embryonic kidney cell line HEK293T cells used in the experiment to the logarithmic growth phase, and then divide them into 12-well plates at a cell density of 6×10^5/mL culture medium/well; incubate the 12-well plates at 37°C overnight (12 h), and then conduct subsequent experiments. • 4) The experimental groups are as follows: • a) Blank group: refers to untreated cells, and this group serves as a blank control group. • b) Free uptake group: directly add 5 µL of fluorescently labeled nucleic acid solution (stock concentration 20 µM), and this group serves as the negative control group. • c) Lipid-nucleic acid mixture treatment group: add the mixture of lipids and fluorescently labeled nucleic acids prepared in step 2 to the cells, and mix homogeneously. The final concentration of nucleic acids is 100 nM. • 5) After incubating with cells for 9 h, wash the cells three times with PBS, resuspend the cells with PBS (self-prepared), and use a flow cytometer CytoFLEX instrument (purchased from Beckman, USA) to detect the fluorescence intensity of the cells in the sample wells.

Another test has as its system H460 cells. How it is done: as §1, §2, §3
In another test the test system is HPAC cells. How it is done: as §1, §2, §3

For `CCCCCCCCCCCCCCCCCCC[C@@H](O)[C@@H](N)CO` [Sphingosine (d22:0), (2S,3R)-2-aminodocosane-1,3-diol], the “Lipid delivery group (1.25 ug/mL)” value amounted to 22.99% in the test on 293T cells, 24.32% with H460 cells and 39.08% in the test with HPAC cells.

As for `CCCCCCCCCCCCCCCCCCCC[C@@H](O)[C@@H](N)CO` [Sphingosine (d23:0), (2S,3R)-2-aminotricosane-1,3-diol], the figures for the “Lipid delivery group (1.25 ug/mL)” value with 293T cells, in the test on H460 cells and in the test with HPAC cells were 98.16%, 98.65% and 78.91%, respectively.

For `CCCCCCCCCCCCCCCCCC/C=C/[C@@H](O)[C@@H](N)CO` [Sphingosine (d23:1), (2S,3R,E)-2-aminotricos-4-ene-1,3-diol], the “Lipid delivery group (1.25 ug/mL)” value in the test on 293T cells is recorded as 34.51%; in the test with H460 cells, 44.11%; with HPAC cells, 7.93%.

As to `CCCCCCCCCCCCCCCCCCCCC[C@@H](O)[C@@H](N)CO` [Sphingosine (d24:0), (2S,3R)-2-aminotetracosane-1,3-diol], the “Lipid delivery group (1.25 ug/mL)” value in the test on 293T cells was determined as 96.77%; with H460 cells, 98.13%; in the test on HPAC cells it was 96.61%.

In the case of `CCCCCCCCCCCCCCCCCCC/C=C/[C@@H](O)[C@@H](N)CO` [Sphingosine (d24:1), (2S,3R,E)-2-aminotetracos-4-ene-1,3-diol], the “Lipid delivery group (1.25 ug/mL)” value with 293T cells was determined as 63.97%; in the test on H460 cells, 79.66%; in the test on HPAC cells, 16.65%.

In the case of `CCCCCCCCCCCCCCCCCCCCCC[C@@H](O)[C@@H](N)CO` [Sphingosine (d25:0), (2S,3R)-2-aminopentacosane-1,3-diol], the “Lipid delivery group (1.25 ug/mL)” value with 293T cells is reported as 97.76%; in the test on H460 cells it was 99.26%; with HPAC cells it was 96.17%.

As for `CCCCCCCCCCCCCCCCCCCC/C=C/[C@@H](O)[C@@H](N)CO` [Sphingosine (d25:1), (2S,3R,E)-2-aminopentacos-4-ene-1,3-diol], the “Lipid delivery group (1.25 ug/mL)” value in the test on 293T cells is 78.12%; in the test on H460 cells, 78.43%; in the test with HPAC cells, 89.70%.

For the compound `CCCCCCCCCCCCCCCCCCCCCCC[C@@H](O)[C@@H](N)CO` [Sphingosine (d26:0), (2S,3R)-2-aminohexacosane-1,3-diol], the figures for the “Lipid delivery group (1.25 ug/mL)” value in the test with 293T cells, in the test with H460 cells and in the test with HPAC cells were 95.55%, 95.2% and 97.75%, respectively.

With `CCCCCCCCCCCCCCCCCCCCC/C=C/[C@@H](O)[C@@H](N)CO` [Sphingosine (d26:1), (2S,3R,E)-2-aminohexacos-4-ene-1,3-diol], the “Lipid delivery group (1.25 ug/mL)” value in the test with 293T cells is 87.97%; in the test on H460 cells, 85.87%; in the test on HPAC cells, 96.03%.

`CCCCCCCCCCCCCCCCCCCCCCCC[C@@H](O)[C@@H](N)CO` [Sphingosine (d27:0), (2S,3R)-2-aminoheptacosane-1,3-diol]: the “Lipid delivery group (1.25 ug/mL)” value was 91.06% in the test on 293T cells, 97.57% with H460 cells and 97.35% in the test on HPAC cells.

For the compound `CCCCCCCCCCCCCCCCCCCCCC/C=C/[C@@H](O)[C@@H](N)CO` [Sphingosine (d27:1), (2S,3R,E)-2-aminoheptacos-4-ene-1,3-diol], the “Lipid delivery group (1.25 ug/mL)” value in the test with 293T cells stood at 92.77%; in the test with H460 cells, 95.74%; with HPAC cells, 99.42%.

On to `CCCCCCCCCCCCCCCCCCCCCCCCC[C@@H](O)[C@@H](N)CO` [Sphingosine (d28:0), (2S,3R)-2-aminooctacosane-1,3-diol], for which the “Lipid delivery group (1.25 ug/mL)” value in the test on 293T cells is 96.93%; in the test with H460 cells, 98.52%; in the test with HPAC cells, 94.40%.

For `CCCCCCCCCCCCCCCCCCCCCCC/C=C/[C@@H](O)[C@@H](N)CO` [Sphingosine (d28:1), (2S,3R,E)-2-aminooctacos-4-ene-1,3-diol], the “Lipid delivery group (1.25 ug/mL)” value turned out to be 86.5% with 293T cells, 84.15% in the test on H460 cells and 96.66% with HPAC cells.

As for `CCCCCCCCCCCCCCCCCCCCCCCCCC[C@@H](O)[C@@H](N)CO` [Sphingosine (d29:0), (2S,3R)-2-aminononacosane-1,3-diol], the “Lipid delivery group (1.25 ug/mL)” value in the test on 293T cells was found to be 72.18%; in the test with H460 cells, 65.81%; in the test on HPAC cells, 83.57%.

Take `CCCCCCCCCCCCCCCCCCCCCCCC/C=C/[C@@H](O)[C@@H](N)CO` [Sphingosine (d29:1), (2S,3R,E)-2-aminononacos-4-ene-1,3-diol]: the “Lipid delivery group (1.25 ug/mL)” value with 293T cells worked out at 32.74%; in the test on H460 cells it was 62.37%; with HPAC cells, 23.36%.

Turning to `CCCCCCCCCCCCCCCCCCCCCCCCCCC[C@@H](O)[C@@H](N)CO` [Sphingosine (d30:0), (2S,3R)-2-aminotriacontane-1,3-diol], the “Lipid delivery group (1.25 ug/mL)” value with 293T cells was 83.38%; in the test on H460 cells, 78.84%; with HPAC cells, 93.63%.

Consider `CCCCCCCCCCCCCCCCCCCCCCCCC/C=C/[C@@H](O)[C@@H](N)CO` [Sphingosine (d30:1), (2S,3R,E)-2-aminotriacont-4-ene-1,3-diol], for which the “Lipid delivery group (1.25 ug/mL)” value is 95.79% in the test with 293T cells, 54.83% in the test on H460 cells and 69.34% with HPAC cells.

As for `CCCCCCCCCCCCCCCCCCCCCCCCCCCC[C@@H](O)[C@@H](N)CO` [Sphingosine (d31:0), (2S,3R)-2-aminohentriacontane-1,3-diol], the “Lipid delivery group (1.25 ug/mL)” value with 293T cells turned out to be 97.4%; in the test with H460 cells, 68.16%; in the test on HPAC cells, 70.5%.

With `CCCCCCCCCCCCCCCCCCCCCCCCCC/C=C/[C@@H](O)[C@@H](N)CO` [Sphingosine (d31:1), (2S,3R,E)-2-aminohentriacont-4-ene-1,3-diol], the “Lipid delivery group (1.25 ug/mL)” value in the test with 293T cells was 75.77%; in the test on H460 cells, 82.66%; in the test with HPAC cells, 60.61%.

As for `CCCCCCCCCCCCCCCCCCCCCCCCCCCCC[C@@H](O)[C@@H](N)CO` [Sphingosine (d32:0), (2S,3R)-2-aminodotriacontane-1,3-diol], the “Lipid delivery group (1.25 ug/mL)” value in the test on 293T cells is reported as 34.02%; in the test on H460 cells, 46.19%; in the test on HPAC cells it was 70.16%.

Consider `CCCCCCCCCCCCCCCCCCCCCCCCCCC/C=C/[C@@H](O)[C@@H](N)CO` [Sphingosine (d32:1), (2S,3R,E)-2-aminodotriacont-4-ene-1,3-diol], for which the figures for the “Lipid delivery group (1.25 ug/mL)” value in the test on 293T cells, with H460 cells and in the test on HPAC cells were 86.77%, 62.18% and 87.38%, respectively.

Turning to `CCCCCCCCCCCCCCCCCCCCCCCCCCCCCC[C@@H](O)[C@@H](N)CO` [Sphingosine (d33:0), (2S,3R)-2-aminotritriacontane-1,3-diol], the “Lipid delivery group (1.25 ug/mL)” value in the test on 293T cells was determined as 61.39%; with H460 cells, 72.21%; with HPAC cells it was 2.48%.

Consider `CCCCCCCCCCCCCCCCCCCCCCCCCCCC/C=C/[C@@H](O)[C@@H](N)CO` [Sphingosine (d33:1), (2S,3R,E)-2-aminotritriacont-4-ene-1,3-diol], for which the “Lipid delivery group (1.25 ug/mL)” value in the test on 293T cells was determined as 40.07%; with H460 cells, 67.01%; in the test with HPAC cells, 45.88%.

For `CCCCCCCCCCCCCCCCCCCCCCCCCCCCCCC[C@@H](O)[C@@H](N)CO` [Sphingosine (d34:0), (2S,3R)-2-aminotetratriacontane-1,3-diol], the “Lipid delivery group (1.25 ug/mL)” value amounted to 5% in the test with 293T cells, 24.56% in the test with H460 cells and 0.55% in the test on HPAC cells.

As to `CCCCCCCCCCCCCCCCCCCCCCCCCCCCC/C=C/[C@@H](O)[C@@H](N)CO` [Sphingosine (d34:1), (2S,3R,E)-2-aminotetratriacont-4-ene-1,3-diol], the entries for the “Lipid delivery group (1.25 ug/mL)” value with 293T cells, with H460 cells and with HPAC cells were 38.31%, 66.64% and 2.95%, respectively.
